System: mouse Lewis lung cancer
Assay: Survival (Kaplan-Meier) and micro-CT tumour examination in Lewis lung cancer mice (Example 3)
Conditions: 5 mg/kg, once every 3 days, 7 times, plasmid intravenous, Gefitinib oral
Experimental: To further study the therapeutic effect of the EGFR siRNA plasmid on mouse Lewis lung cancer, after successful model construction of Lewis lung cancer mice, we performed treatment in the following three groups: the EGFR-si plasmid group, Gefitinib group and control plasmid group, respectively. […] The EGFR-si plasmid and control plasmid were administered by intravenous injection, and Gefitinib was administered orally. The dosage in each treatment group was 5 mg/kg, and the administration interval was once every 3 days, for a total of 7 times. After the treatment, we recorded the survival situation of the mice and plotted the Kaplan-Meier survival curve using the Graphpad Prism statistical software.

Question: Which “change of lung tumours after the treatment (micro-CT)” value does the source give for `COc1cc2ncnc(Nc3ccc(F)c(Cl)c3)c2cc1OCCCN1CCOCC1` [Gefitinib] here?
Answer: The value was “the tumours generally grew”.

— patent publication US11304970B2, “EGFR gene expression-suppressing siRNA, precursor of same, and applications thereof” (JIANGSU MICROMEDMARK BIOTECH CO., LTD., priority 2016, dated 2022)
